# According to patent US8633237B2, “Indane derivatives” (Merck Sharp & Dohme B.V., priority 2009, dated 2014):
# Target: T1, AMPA (GluR1) receptor (Homo sapiens, UniProt P42261)
# T1 construct: expressed in transfected cells; host or cells: HEK cells (HEK.GluR1(i)), kept under hygromycin selection
# Assay: Ca2+ influx fluorescence assay (FLEXstation, Fluo-3) in HEK.GluR1(i) cells
# Assay type: cell-based
# Details: glutamate +/- test compound, read-out: EC50, positive modulation of the AMPA receptor
# Text: The compounds in this invention may be tested using a biological assay which measures Ca^2+ influx mediated through positive modulation of the AMPA (GluR1) receptor using standard techniques in the art such as, but not limited to, a FLEXstation (manufactured by Molecular Devices, Sunnyvale, Calif.). An optical readout using fluorescent probes is employed to measure ion channel dependent changes in intracellular ion concentration or membrane potential. The assay utilises the Ca^2+ conductance of functional homomeric GluR1(i) AMPA receptors to generate glutamate-dependent Ca^2+ responses. Influx of Ca^2+ through the ion channel is measured indirectly through an increase in intracellular Ca^2+ levels using the calcium sensitive dye such as, but not limited to, Fluo-3 (Molecular Devices, Sunnyvale, Calif.) in FLEXstation. A positive AMPA receptor modulator, in the presence of glutamate, will result in an influx of Ca^2+ through the ion channel which can be measured indirectly through an increase in intracellular Ca2+ levels using the calcium sensitive dye Fluo-3 in FLEXstation.
# HEK.GluR1(i) cells were maintained in DMEM supplemented with 10% fetaclone II, 1% non-essential amino acids and 150 μg/mL hygromycin, at 37° C./5% CO2. […]
# T1 sequence (P42261 19-906 isoform P42261-2 limits assumed, species assumed): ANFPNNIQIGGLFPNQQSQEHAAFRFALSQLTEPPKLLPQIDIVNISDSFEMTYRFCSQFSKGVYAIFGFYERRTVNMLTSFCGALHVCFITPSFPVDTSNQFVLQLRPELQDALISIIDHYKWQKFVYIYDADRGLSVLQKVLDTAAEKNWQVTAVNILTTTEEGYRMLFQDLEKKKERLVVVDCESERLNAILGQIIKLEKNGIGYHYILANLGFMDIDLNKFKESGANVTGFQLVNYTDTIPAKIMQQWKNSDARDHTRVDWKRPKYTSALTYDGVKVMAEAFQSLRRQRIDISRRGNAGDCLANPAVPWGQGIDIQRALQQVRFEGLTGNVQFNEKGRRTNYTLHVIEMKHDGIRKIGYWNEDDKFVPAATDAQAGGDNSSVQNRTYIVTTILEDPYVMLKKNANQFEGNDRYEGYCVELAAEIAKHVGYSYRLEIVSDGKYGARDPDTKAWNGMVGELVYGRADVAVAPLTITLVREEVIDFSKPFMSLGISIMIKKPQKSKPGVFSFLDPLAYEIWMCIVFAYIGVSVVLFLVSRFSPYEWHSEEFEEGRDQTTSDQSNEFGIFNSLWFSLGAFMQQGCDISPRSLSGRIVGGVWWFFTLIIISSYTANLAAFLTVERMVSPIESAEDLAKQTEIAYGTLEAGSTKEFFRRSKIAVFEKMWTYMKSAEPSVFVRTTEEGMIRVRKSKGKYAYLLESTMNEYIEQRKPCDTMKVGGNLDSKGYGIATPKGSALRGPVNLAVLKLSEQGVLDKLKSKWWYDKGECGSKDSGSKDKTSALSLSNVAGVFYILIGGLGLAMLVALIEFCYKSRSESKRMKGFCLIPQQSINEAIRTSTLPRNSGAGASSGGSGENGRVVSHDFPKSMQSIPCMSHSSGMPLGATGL
smiles,measurement,value
"CC(C)S(=O)(=O)N[C@H]1Cc2ccc(Oc3cccc(C(F)(F)F)c3)cc2C1 [Example 9, (S)-N-(5-(3-(trifluoromethyl)phenoxy)-2,3-dihydro-1H-inden-2-yl)propane-2-sulfonamide]",EC50,2300 nM
